Laboratory results taken from publication PMC10380083, “Synthesis of Prostate-Specific Membrane Antigen-Targeted Bimodal Conjugates of Cytotoxic Agents and Antiandrogens and Their Comparative Assessment with Monoconjugates” (International Journal of Molecular Sciences, 2023).
Read-outs that look alike come from different tables or passages of the source. *1 amine or outer side, *2 acyl side, *3 side chain or, on linkers, in order; H or OH if unused. Where a SMILES comes first, the peptide text is derived from it. [ ]: non-standard residue; d: D form. The star is where a group is joined. GluureaLys(ε-3-ClBenzyl) = O=C(O)CC[C@H](NC(=O)N[C@@H](CCCCN(Cc1cccc(Cl)c1)*)C(=O)O)C(=O)O; X4 = C[C@]12CC[C@H](OC(=O)CCC(=O)*)CC1=CC[C@@H]1[C@@H]2CC[C@]2(C)C(c3cccnc3)=CC[C@@H]12; Dolaproine = CO[C@@H]([C@@H]1CCCN1)[C@@H](C)C(=O)O; Dil = CC[C@H](C)[C@H](NC)[C@@H](CC(=O)O)OC; X2 = O=C(CCCc1cn(CCCN[*:1])nn1)[*:2]; PABC = O=C(OCc1ccc(N[*:1])cc1)[*:2]; X1 = C[C@@H](N*)[C@@H](O)c1ccccc1; Cit = NC(=O)NCCC[C@H](N)C(=O)O; Suc = O=C(CCC(=O)[*:2])[*:1]; NMeV = CN[C@H](C(=O)O)C(C)C; Ahx = NCCCCCC(=O)O

Key:
[1] = tested on: 22Rv1 human prostate carcinoma xenograft; conditions: 22Rv1 xenograft; for tumor volume V±m: i.v. triple injection, single dose 132.3 nM/kg; for Tumor growth inhibition: i.v. 132.3 nM/kg three times
Method: (§1) We carried out in vivo studies of the efficacy of the obtained bimodal conjugates. […] Also, conjugate I (Figure 5) was used as a reference compound. An isotonic (0.9%) sodium chloride solution was used as a negative control. Studies were carried out in xenograft models of 22Rv1 human prostate carcinoma and PC-3 prostate adenocarcinoma in immunodeficient Balb/c nude mice (male).
(§2) Two cell lines were used: human prostate carcinoma 22Rv1 and prostate adenocarcinoma PC-3 (ATCC collection). Cells were cultured in 75 cm^2 vials (Costar, Washington, DC, USA) in RPMI-1640 medium (PanEco, Russia) with the addition of 2 mM L-glutamine (PanEco, Russia) and 10% fetal calf serum (HyClone, Logan, UT, USA) under standard conditions of cultivation (in a humidified atmosphere at 37 °C and 5% CO2). Cells of 6–10 passages were used to inoculate the animals. Cell suspension was prepared with a concentration of 5 × 10^6 cells in 0.05 mL of the 22Rv1 medium and in 0.1 mL of the PC-3 medium. 22Rv1 cells were inoculated into animals in Matrigel (BD Matrigel Basement Membrane Matrix, BD Biosciences, San Jose, CA, USA). Manipulations with Matrigel were performed on a refrigerated plate using precooled materials, tubes and instrumentation. For animal administration, 50 μL of the cell suspension (5 × 10^6 cells) was transferred to a chilled tube containing 50 μL of Matrigel; after mixing, the cellular material (final volume of 100 μL) was injected subcutaneously into the groin area of the animal. To obtain subcutaneous xenograft PC-3, a 5 × 10^6 suspension of tumor cells was inoculated subcutaneously into the inguinal cavity of male mice in a volume of 0.1 mL.
(§3) To study the antitumor efficacy, conjugates were administered intravenously at a dose of 132.3 nM/kg to tumor-bearing mice three times at five-day intervals; administration was started 7−8 days after cell inoculation, and the tumor size was 70−90 mm^3. As a control substance, 0.9% sodium chloride solution was used. Experimental groups included five animals each. […] The mixture was dissolved in DMSO (5% of final solution) and diluted with hemodesum (30% low-molecular-weight polyvinylpyrrolidone (Mw = 8000 ± 200) saline infusion solution). The presence of tumors and their sizes, as well as the body weights of the mice, were recorded every five days during the observation of the animals. The antitumor effect was assessed by comparing the tumor volumes in the experimental and control groups as well as the amount of tumor growth inhibition (TGI, %).
(§4) Tumor volume was calculated using Formula (1):V = d1 × d2 × d3 × 0.52(1) where d1, d2 and d3 are the three mutually perpendicular dimensions of the tumor. […]
(§5) 3.2.1. In vivo evaluation of antitumor efficacy […]
(§6) intravenously at a dose of 132.3 nM/kg to tumor-bearing mice three times at 5-day intervals, the administration was started 7-8 days after cell inoculation to animals, tumor size was 70-90 mm3.
(§7) A 0.9% sodium chloride solution was used as a control substance. The experimental groups […]
(§8) The presence of tumor masses and their size, as well as the body weight of the mice, were recorded every 5 days during observation. In accordance with humane principles, animals were euthanized by placing the mice in a CO2 inhalation chamber (ZOONLAB GmbH, Germany).

[2] = tested on: PC-3 prostate adenocarcinoma xenograft; conditions: PC-3 xenograft; for tumor volume V±m: i.v. triple injection, single dose 132.3 nM/kg; for Tumor growth inhibition: i.v. 132.3 nM/kg three times; for TGI, did not exceed: i.v. 132.3 nM/kg three times at five-day intervals, male Balb/c nude mice
Method: as §1, §2, §3, §4, §5, §6, §7, §8

[3] = Body weight, general condition and mortality in the antitumor efficacy study; conditions: i.v. 132.3 nM/kg x3
Method: Animal body weight data are presented in Table S2 in the electronic supplementary materials.
as §3, with “%). […]” for “%).”
as §5, §6, §7, §8
Conjugate Method of injection Dose Number of animals 22Rv1 PC-3 […]
3.4. In vivo Efficacy Evaluation
Days after tumor implantation / mass± error, g
Conjugate 7 day 12 day 17 day […]
injection) injection) injection)
Human prostate carcinoma 22Rv1
Human prostate adenocarcinoma PC-3
Table S3. Tumor growth dynamics of 22Rv1 and PC-3 in mice with intravenous triple injection of […]
ate Days after tumor implantation / V±m, mm3

[4] = 7 day after tumor implantation (1st injection)
[5] = 12 day after tumor implantation (2nd injection)
[6] = 17 day after tumor implantation (3rd injection)
[7] = 22 day after tumor implantation
[8] = 33 day after tumor implantation
[9] = 37 day after tumor implantation
[10] = days after the start of treatment: 1
[11] = days after the start of treatment: 5
[12] = days after the start of treatment: 10
[13] = days after the start of treatment: 16
[14] = days after the start of treatment: 20
[15] = 22Rv1 xenograft mice, 7 day after tumor implantation (1st injection)
[16] = 22Rv1 xenograft mice, 12 day after tumor implantation (2nd injection)
[17] = 22Rv1 xenograft mice, 17 day after tumor implantation (3rd injection)
[18] = 22Rv1 xenograft mice, 22 day after tumor implantation
[19] = 22Rv1 xenograft mice, 27 day after tumor implantation
[20] = 22Rv1 xenograft mice, 33 day after tumor implantation
[21] = 22Rv1 xenograft mice, 37 day after tumor implantation
[22] = PC-3 xenograft mice, 7 day after tumor implantation (1st injection)
[23] = PC-3 xenograft mice, 12 day after tumor implantation (2nd injection)
[24] = PC-3 xenograft mice, 17 day after tumor implantation (3rd injection)
[25] = PC-3 xenograft mice, 22 day after tumor implantation
[26] = PC-3 xenograft mice, 27 day after tumor implantation
[27] = PC-3 xenograft mice, 33 day after tumor implantation
[28] = PC-3 xenograft mice, 37 day after tumor implantation

SMILES | tumor volume V±m [1, 4] | tumor volume V±m [1, 5] | tumor volume V±m [1, 6] | tumor volume V±m [1, 7] | tumor volume V±m [1, 8] | tumor volume V±m [1, 9] | Tumor growth inhibition [1, 10] | Tumor growth inhibition [1, 13] | Tumor growth inhibition [1, 14] | tumor volume V±m [2, 4] | tumor volume V±m [2, 5] | tumor volume V±m [2, 8] | tumor volume V±m [2, 9] | Tumor growth inhibition [2, 13] | Tumor growth inhibition [2, 14] | TGI, did not exceed [2] | body weight, mass ± error [3, 15] | body weight, mass ± error [3, 16] | body weight, mass ± error [3, 17] | body weight, mass ± error [3, 18] | other results
CC[C@H](C)[C@@H]([C@@H](CC(=O)N1CCC[C@H]1[C@H](OC)[C@@H](C)C(=O)N[C@H](C)[C@@H](O)c1ccccc1)OC)N(C)C(=O)[C@@H](NC(=O)[C@H](C(C)C)N(C)C(=O)OCc1ccc(NC(=O)[C@H](CCCNC(N)=O)NC(=O)[C@@H](NC(=O)CCCc2cn(CCCNC(=O)[C@H](CCCCNC(=O)CCC(=O)O[C@H]3CC[C@@]4(C)C(=CC[C@@H]5[C@@H]4CC[C@]4(C)C(c6cccnc6)=CC[C@@H]54)C3)NC(=O)[C@H](Cc3ccc(O)cc3)NC(=O)[C@H](Cc3ccccc3)NC(=O)CCC(=O)NCCCCCC(=O)N(CCCC[C@H](NC(=O)N[C@@H](CCC(=O)O)C(=O)O)C(=O)O)Cc3cccc(Cl)c3)nn2)C(C)C)cc1)C(C)C [13a] ({GluureaLys(ε-3-ClBenzyl)-Ahx-Suc}-FYK(X4)[X2]V[Cit][PABC][NMeV]V[Dil][Dolaproine]-X1) | 69.6±17.0 mm3 | 77.2±9.3 mm3 | 81.4±25.8 mm3 | 121.7 mm3 | 391.6 mm3 | 784.0 mm3 | 62.0% | 80.6% | 72.6% | 82.2±5.9 mm3 | 127.5 mm3 | 958.0 mm3 | 1684.0 mm3 | 29.5% | 38.3% | ≤ 44.9% | 22.3 ± 1.3 g | 22.5 ± 1.4 g | 22.2 ± 1.4 g | 22.2 ± 1.4 g | Tumor growth inhibition [1, 11]: 77.1%; Tumor growth inhibition [1, 12]: 80.4%; tumor volume V±m [2, 7]: 292.5 mm3; tumor volume V±m ([2]; 27 day after tumor implantation): 463.1 mm3; Tumor growth inhibition [2, 10]: 36.2%; Tumor growth inhibition [2, 11]: 40.0%; Tumor growth inhibition [2, 12]: 44.9%; body weight, mass ± error [3, 19]: 22.5 ± 1.3 g; body weight, mass ± error [3, 20]: 22.7 ± 1.3 g; body weight, mass ± error [3, 21]: 22.7 ± 1.3 g; body weight, mass ± error [3, 22]: 24.9 ± 1.2 g; body weight, mass ± error [3, 23]: 24.7 ± 1.5 g; body weight, mass ± error [3, 24]: 24.8 ± 1.4 g; body weight, mass ± error [3, 25]: 25.0 ± 1.4 g; body weight, mass ± error [3, 26]: 25.1 ± 1.3 g; body weight, mass ± error [3, 27]: 25.2 ± 1.2 g; body weight, mass ± error [3, 28]: 25.3 ± 1.2 g
CC[C@H](C)[C@@H]([C@@H](CC(=O)N1CCC[C@H]1[C@H](OC)[C@@H](C)C(=O)N[C@H](C)[C@@H](O)c1ccccc1)OC)N(C)C(=O)[C@@H](NC(=O)[C@H](C(C)C)N(C)C(=O)OCc1ccc(NC(=O)[C@H](CCCNC(N)=O)NC(=O)[C@@H](NC(=O)CCCc2cn(CCCNC(=O)[C@H](Cc3ccc(O)cc3)NC(=O)[C@H](Cc3ccccc3)NC(=O)CCC(=O)NCCCCCC(=O)N(CCCC[C@H](NC(=O)N[C@@H](CCC(=O)O)C(=O)O)C(=O)O)Cc3cccc(Cl)c3)nn2)C(C)C)cc1)C(C)C [I, reference compound] ({GluureaLys(ε-3-ClBenzyl)-Ahx-Suc}-FY[X2]V[Cit][PABC][NMeV]V[Dil][Dolaproine]-X1) | 78.3±16.3 mm3 | 85.4±25.5 mm3 | 92.6±34.8 mm3 | 147.7 mm3 | 419.5 mm3 | 824.4 mm3 | 77.4% | 80.1% | 71.0% | 80.3±4.5 mm3 | 92.6±14.8 mm3 | 1059.1 mm3 | 1855.5 mm3 | 37.2% | 21.1% | ≤ 37.7% | 23.4 ± 0.8 g | 23.9 ± 1.2 g | 23.5 ± 1.7 g | 23.4 ± 1.5 g | tumor volume V±m [2, 6]: 128.9 mm3; body weight, mass ± error [3, 19]: 23.2 ± 1.4 g; body weight, mass ± error [3, 20]: 23.2 ± 1.6 g; body weight, mass ± error [3, 21]: 23.4 ± 1.5 g; body weight, mass ± error [3, 22]: 22.4 ± 2.1 g; body weight, mass ± error [3, 23]: 22.8 ± 1.8 g; body weight, mass ± error [3, 24]: 22.4 ± 1.6 g; body weight, mass ± error [3, 25]: 22.8 ± 1.4 g; body weight, mass ± error [3, 26]: 23.0 ± 1.3 g; body weight, mass ± error [3, 27]: 23.2 ± 1.4 g; body weight, mass ± error [3, 28]: 23.1 ± 1.3 g
